In US6737383B1, “Herbicidal oxadiazolidines” (priority 1999, dated 2004):

How the values were obtained:
corn = experiment: Test B pre/postemergence corn; type: in vivo, Zea mays
Method in brief: (§1)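 Response is a visual 0-to-10 score relative to untreated plants, where 0 means no effect and 10 means complete control, taken twelve to sixteen days after application. Treatments went onto soil at planting and onto foliage of 1- to 4-leaf plants, using a surfactant-containing non-phytotoxic solvent.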

rape = experiment: Test B pre/postemergence rape; type: in vivo, Brassica napus
Method in brief: as §1

sugar beet = experiment: Test B pre/postemergence sugar beet; type: in vivo, Beta vulgaris; settings: for Plant response rating, Sugarbeets: Rate 250 g/ha
Method in brief: as §1

duck salad = experiment: Test B flood test duck salad; type: in vivo, Heteranthera limosa
Method in brief: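 Flood test on plants grown to the 2-leaf stage; treated plants kept in greenhouse twelve to sixteen days, then visually rated against controls on a 0 (no effect) to 10 (complete control) scale.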

pitted morningglory = experiment: Test D pitted morningglory; type: in vivo, Ipomoea lacunosa; settings: Preemergence, 0 to 100 scale
Method in brief: (§2)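 Visual injury ratings, 0 = no injury to 100 = complete control, taken 14 to 21 days after treatment. Test chemicals were in a surfactant-containing non-phytotoxic solvent; preemergence treatments went onto the sandy loam surface of seeded greenhouse pots within one day of sowing.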

tall mallow = experiment: Test D tall mallow; type: in vivo, Malva sylvestris; settings: Preemergence, 0 to 100 scale
Method in brief: as §2

winter wheat [1] = experiment: Test E winter wheat; type: in vivo, Triticum aestivum; settings: Postemergence
Method in brief: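 Greenhouse test: compounds in non-phytotoxic solvent with surfactant; for postemergence, sprayed on plants at 1- to 4-leaf stage grown in 60:40 sandy loam/potting mix. Injury rated visually against untreated controls after about 21 to 28 days.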

blackgrass = experiment: Test E blackgrass; type: in vivo, Alopecurus myosuroides; settings: Preemergence
green foxtail = experiment: Test E green foxtail; type: in vivo, Setaria viridis; settings: Preemergence
Italian ryegrass = experiment: Test E Italian ryegrass; type: in vivo, Lolium multiflorum; settings: Preemergence
winter wheat [2] = experiment: Test E winter wheat; type: in vivo, Triticum aestivum; settings: Preemergence
wild oat = experiment: Test E wild oat; type: in vivo, Avena fatua; settings: Preemergence
winter barley = experiment: Test E winter barley; type: in vivo, Hordeum vulgare; settings: Preemergence
[3] = Postemergence, Rate 125 g/ha, scale of 0 to 10 where 0 is no effect and 10 is complete control
[4] = Postemergence, Rate 250 g/ha, scale 0 to 10, 0 no effect, 10 complete control
[5] = Preemergence, Rate 62 g/ha, scale 0 to 10 (0 no effect, 10 complete control)
[6] = Preemergence, Rate 125 g/ha, scale 0 to 10 (0 no effect, 10 complete control)
[7] = Preemergence, Rate 250 g/ha, scale of 0 to 10 where 0 is no effect and 10 is complete control
[8] = Preemergence, Rate 500 g/ha, scale 0 to 10 (0 no effect, 10 complete control)
[9] = Rate 62 g/ha, Postemergence, scale of 0 to 10 where 0 is no effect and 10 is complete control
[10] = Rate 500 g/ha, Postemergence, scale 0 to 10, 0 no effect, 10 complete control
[11] = Rate 16 g/ha, 0 no injury, 100 complete control
[12] = Rate 32 g/ha, 0 no injury, 100 complete control
[13] = Rate 64 g/ha, 0 no injury, 100 complete control
[14] = Rate 125 g/ha, 0 no injury, 100 complete control
[15] = Rate 62 g/ha, 0 to 100 scale, 0 no effect, 100 complete control
[16] = Rate 125 g/ha, 0 to 100 scale (0 no effect, 100 complete control)
[17] = Rate 500 g/ha, 0 to 100 scale where 0 is no effect and 100 is complete control

**Q.** How did the “Corn plant response rating” value (corn; [3]) turn out when `CC(C)N(C(=O)n1oc(=O)n(C(C)C)c1=O)c1ccc(F)cc1F` [Compound 109] was run?
**A.** The value was 0.

**Q.** And the “Corn plant response rating” value (corn; [4])?
**A.** The value was 3.

**Q.** What about the “Corn plant response rating” value (corn; [5]) of the same compound?
**A.** The value was 0.

**Q.** What about the “Plant response rating, Corn” value (corn; [6]) of the same compound?
**A.** The value was 3.

**Q.** What about the “Plant response rating, Corn” value (corn; [7]) of the same compound?
**A.** The value was 7.

**Q.** What about the “Corn plant response rating” value (corn; [8]) of the same compound?
**A.** Its value is 9.

**Q.** And the “Corn plant response rating” value (corn; [9])?
**A.** The value was 0.

**Q.** What about the “Corn plant response rating” value (corn; [10]) of the same compound?
**A.** Its value is 5.

**Q.** And the “Rape plant response rating” value (rape; [3])?
**A.** Its value is 3.

**Q.** What about the “Rape plant response rating” value (rape; [4]) of the same compound?
**A.** Its value is 4.

**Q.** What about the “Rape plant response rating” value (rape; [5]) of the same compound?
**A.** The value was 7.

**Q.** What about the “Plant response rating, Rape” value (rape; [6]) of the same compound?
**A.** Its value is 8.

**Q.** What about the “Plant response rating, Rape” value (rape; [7]) of the same compound?
**A.** Its value is 9.

**Q.** What about the “Rape plant response rating” value (rape; [8]) of the same compound?
**A.** The value was 10.

**Q.** And the “Rape plant response rating” value (rape; [9])?
**A.** Its value is 3.

**Q.** What about the “Rape plant response rating” value (rape; [10]) of the same compound?
**A.** The value was 6.

**Q.** What about the “Sugarbeets plant response rating” value (sugar beet; [3]) of the same compound?
**A.** Its value is 4.

**Q.** What about the “Sugarbeets plant response rating” value (sugar beet; [5]) of the same compound?
**A.** Its value is 8.

**Q.** And the “Sugarbeets plant response rating (0 to 10 scale)” value (sugar beet; Preemergence, Rate 125 g/ha, 0 is no effect, 10 is complete control)?
**A.** The value was 10.

**Q.** And the “Plant response rating, Sugarbeets” value (sugar beet; Preemergence, scale of 0 to 10 where 0 is no effect and 10 is complete control)?
**A.** Its value is 10.

**Q.** What about the “Sugarbeets plant response rating” value (sugar beet; [8]) of the same compound?
**A.** Its value is 10.

**Q.** What about the “Sugarbeets plant response rating” value (sugar beet; [9]) of the same compound?
**A.** Its value is 3.

**Q.** And the “Plant response rating, Sugarbeets” value (sugar beet; Postemergence, scale 0 to 10, 0 is no effect, 10 is complete control)?
**A.** Its value is 6.

**Q.** And the “Sugarbeets plant response rating” value (sugar beet; [10])?
**A.** The value was 7.

**Q.** And the “Ducksalad plant response rating” value (duck salad; Postemergence (flood test species), Rate 125 g/ha, scale of 0 to 10 where 0 is no effect and 10 is complete control)?
**A.** The value was 0.

**Q.** And the “Ducksalad plant response rating” value (duck salad; Rate 62 g/ha, Postemergence section, flood test species, scale of 0 to 10 where 0 is no effect and 10 is complete control)?
**A.** The value was 0.

**Q.** And the “Ducksalad plant response rating” value (duck salad; Rate 250 g/ha, headed Pre-emergence (flood test species), scale 0 to 10 (0 no effect, 10 complete control))?
**A.** The value was 0.

**Q.** What about the “Plant response rating, Ducksalad” value (duck salad; Rate 500 g/ha, headed Pre-emergence (flood test species), scale 0 to 10 (0 no effect, 10 complete control)) of the same compound?
**A.** The value was 0.

**Q.** And the “Ducksalad plant response rating” value (duck salad; Rate 500 g/ha, listed under Postemergence (flood test species), scale 0 to 10, 0 no effect, 10 complete control)?
**A.** The value was 0.

**Q.** And the “Ducksalad plant response rating” value (duck salad; Rate 1000 g/ha, Pre-emergence (as headed), scale 0 to 10)?
**A.** The value was 1.

**Q.** What about the “Ducksalad plant response rating” value (duck salad; Rate 2000 g/ha, Pre-emergence (as headed), scale 0 to 10) of the same compound?
**A.** The value was 6.

**Q.** And the “Ducksalad plant response rating” value (duck salad; flood test, listed under Postemergence, Rate 250 g/ha, scale 0 to 10, 0 no effect, 10 complete control)?
**A.** Its value is 0.

**Q.** And the “Plant response rating, P. morninglory” value (pitted morningglory; [11])?
**A.** The value was 0.

**Q.** What about the “Plant response rating, P. morninglory” value (pitted morningglory; [12]) of the same compound?
**A.** Its value is 0.

**Q.** And the “Plant response rating, P. morninglory” value (pitted morningglory; [13])?
**A.** Its value is 0.

**Q.** And the “Plant response rating, P. morninglory” value (pitted morningglory; [14])?
**A.** The value was 65.

**Q.** And the “Plant response rating, P. morninglory” value (pitted morningglory; Rate 250 g/ha)?
**A.** Its value is 85.

**Q.** What about the “Plant response rating, P. morninglory” value (pitted morningglory; Rate 500 g/ha) of the same compound?
**A.** Its value is 100.

**Q.** What about the “Plant response rating, Tall Mallow” value (tall mallow; [11]) of the same compound?
**A.** The value was 0.

**Q.** And the “Plant response rating, Tall Mallow” value (tall mallow; [12])?
**A.** Its value is 20.

**Q.** What about the “Tall Mallow plant response rating” value (tall mallow; [13]) of the same compound?
**A.** Its value is 60.

**Q.** What about the “Tall Mallow plant response rating” value (tall mallow; [14]) of the same compound?
**A.** Its value is 85.

**Q.** What about the “Plant response rating, Tall Mallow” value (tall mallow; Rate 250 g/ha) of the same compound?
**A.** Its value is 98.

**Q.** What about the “Plant response rating, Tall Mallow” value (tall mallow; Rate 500 g/ha) of the same compound?
**A.** Its value is 100.

**Q.** What about the “Plant response rating, Wheat (winter)” value (winter wheat [1]; Rate 62 g/ha, 0 to 100 scale) of the same compound?
**A.** Its value is 0.

**Q.** And the “Plant response rating, Wheat (winter)” value (winter wheat [1]; Rate 125 g/ha, 0 to 100 scale)?
**A.** Its value is 55.

**Q.** And the “Plant response rating, Wheat (winter)” value (winter wheat [1]; Rate 250 g/ha, 0 to 100 scale (0 no effect, 100 complete control))?
**A.** Its value is 75.

**Q.** What about the “Plant response rating, Wheat (winter)” value (winter wheat [1]; Rate 500 g/ha, 0 to 100 scale, 0 no effect, 100 complete control) of the same compound?
**A.** The value was 0.

**Q.** What about the “Plant response rating, Blackgrass” value (blackgrass; [15]) of the same compound?
**A.** The value was 30.

**Q.** And the “Plant response rating, Blackgrass” value (blackgrass; [16])?
**A.** The value was 65.

**Q.** What about the “Plant response rating, Blackgrass” value (blackgrass; Rate 250 g/ha, 0 to 100 scale) of the same compound?
**A.** The value was 65.

**Q.** What about the “Plant response rating, Blackgrass” value (blackgrass; [17]) of the same compound?
**A.** The value was 90.

**Q.** What about the “Plant response rating, Green foxtail” value (green foxtail; [15]) of the same compound?
**A.** Its value is 50.

**Q.** What about the “Plant response rating, Green foxtail” value (green foxtail; [16]) of the same compound?
**A.** Its value is 85.

**Q.** And the “Plant response rating, Green foxtail” value (green foxtail; Rate 250 g/ha, 0 to 100 scale)?
**A.** Its value is 100.

**Q.** And the “Plant response rating, Green foxtail” value (green foxtail; [17])?
**A.** The value was 85.

**Q.** And the “Plant response rating, I. Ryegrass” value (Italian ryegrass; [15])?
**A.** The value was 20.

**Q.** What about the “Plant response rating, I. Ryegrass” value (Italian ryegrass; [16]) of the same compound?
**A.** The value was 100.

**Q.** What about the “Plant response rating, I. Ryegrass” value (Italian ryegrass; Rate 250 g/ha, 0 to 100 scale) of the same compound?
**A.** The value was 100.

**Q.** What about the “Plant response rating, I. Ryegrass” value (Italian ryegrass; [17]) of the same compound?
**A.** The value was 70.

**Q.** What about the “Plant response rating, Wheat (winter)” value (winter wheat [2]; [15]) of the same compound?
**A.** The value was 20.

**Q.** And the “Plant response rating, Wheat (winter)” value (winter wheat [2]; [16])?
**A.** Its value is 30.

**Q.** And the “Plant response rating, Wheat (winter)” value (winter wheat [2]; Rate 250 g/ha, 0 to 100 scale)?
**A.** The value was 55.

**Q.** And the “Plant response rating, Wheat (winter)” value (winter wheat [2]; [17])?
**A.** Its value is 10.

**Q.** What about the “Plant response rating, Wild oat” value (wild oat; [15]) of the same compound?
**A.** Its value is 20.

**Q.** What about the “Plant response rating, Wild oat” value (wild oat; [16]) of the same compound?
**A.** Its value is 30.

**Q.** What about the “Plant response rating, Wild oat” value (wild oat; [17]) of the same compound?
**A.** The value was 80.

**Q.** What about the “Plant response rating, Barley (winter)” value (winter barley; [15]) of the same compound?
**A.** The value was 10.

**Q.** What about the “Plant response rating, Barley (winter)” value (winter barley; [16]) of the same compound?
**A.** Its value is 10.

**Q.** And the “Plant response rating, Barley (winter)” value (winter barley; Rate 250 g/ha, 0 to 100 scale)?
**A.** The value was 20.

**Q.** And the “Plant response rating, Barley (winter)” value (winter barley; [17])?
**A.** The value was 5.
